For assay [1], the system named is SARS-CoV-2. As to the kind of experiment: Antiviral activity against SARS-CoV-2 infected in Vero E6 cells assessed as reduction in viral replication at 12.5 uM preincubated for 30 mins followed by viral infection measured after 72 hrs by crystal violet staining based plaque assay. Details: scale not given: the % may be the effect or the level left. The format is functional, Severe acute respiratory syndrome coronavirus 2.

In assay [2] the test system is SARS-CoV-2. As to the kind of experiment: Antiviral activity against pseudotyped SARS-CoV-2 infected in Huh7 cells expressing hACE2 at 10 uM preincubated for 1 hr followed by cell infection measured after 2 days by bright-Glo luciferase assay. The format is functional, Severe acute respiratory syndrome coronavirus 2, Huh-7. The note with it: time 49 hrs.
Assay [3] has as its system SARS-CoV-2. Briefly: Antiviral activity against pseudotyped SARS-CoV-2 infected in Huh7 cells expressing hACE2 preincubated for 1 hr followed by cell infection measured after 2 days by bright-Glo luciferase assay. Type of assay: functional, organism-based. Conditions: Severe acute respiratory syndrome coronavirus 2, Huh-7.

Turning to `CC[C@H](C)[C@H](NC(=O)CNC(=O)[C@H](CO)NC(=O)[C@@H](NC(=O)[C@H](CC(=O)O)NC(C)=O)[C@@H](C)CC)C(=O)N[C@@H](CC(N)=O)C(=O)N[C@@H](C)C(=O)N[C@@H](CO)C(=O)N[C@H](C(=O)N[C@H](C(=O)N[C@@H](CC(N)=O)C(=O)N[C@H](C(=O)N[C@@H](CCC(N)=O)C(=O)N[C@@H](CCCCN)C(=O)N[C@@H](CCC(=O)O)C(=O)N[C@H](C(=O)N[C@@H](CC(=O)O)C(=O)N[C@@H](CCCNC(=N)N)C(=O)N[C@@]1(C)CCC/C=C\CCC[C@@](C)(C(=O)N[C@@H](CCCCN)C(=O)N[C@@H](CC(N)=O)C(=O)N[C@@H](CC(C)C)C(=O)N[C@@H](CC(N)=O)C(=O)N[C@@H](CCC(=O)O)C(=O)N[C@@H](CO)C(=O)N[C@@H](CC(C)C)C(=O)N[C@H](C(=O)N[C@@H](CC(=O)O)C(=O)N[C@@H](CC(C)C)C(=O)N[C@@H](CCC(N)=O)C(=O)N[C@@H](CCC(=O)O)C(=O)N[C@@H](CC(C)C)C(N)=O)[C@@H](C)CC)NC(=O)[C@H](C(C)C)NC(=O)[C@H](CCC(=O)O)NC(=O)[C@H](CC(N)=O)NC1=O)[C@@H](C)CC)[C@@H](C)CC)C(C)C)C(C)C`, the Activity in the assay on SARS-CoV-2 [1] was 33.5%; in the assay with SARS-CoV-2 [2] it was 25.1%.

As for `CC[C@H](C)[C@H](NC(=O)CNC(=O)[C@H](CO)NC(=O)[C@@H](NC(=O)[C@H](CC(=O)O)NC(C)=O)[C@@H](C)CC)C(=O)N[C@@H](CC(N)=O)C(=O)N[C@@H](C)C(=O)N[C@@H](CO)C(=O)N[C@H](C(=O)N[C@H](C(=O)N[C@@H](CC(N)=O)C(=O)N[C@H](C(=O)N[C@@]1(C)CCC/C=C\CCC[C@@](C)(C(=O)N[C@@H](CCCNC(=N)N)C(=O)N[C@@H](CC(C)C)C(=O)N[C@@H](CC(N)=O)C(=O)N[C@@H](CCC(=O)O)C(=O)N[C@H](C(=O)N[C@@H](C)C(=O)N[C@@H](CCCCN)C(=O)N[C@@H](CC(N)=O)C(=O)N[C@@H](CC(C)C)C(=O)N[C@@H](CC(N)=O)C(=O)N[C@@H](CCC(=O)O)C(=O)N[C@@H](CO)C(=O)N[C@@H](CC(C)C)C(=O)N[C@H](C(=O)N[C@@H](CC(=O)O)C(=O)N[C@@H](CC(C)C)C(=O)N[C@@H](CCC(N)=O)C(=O)N[C@@H](CCC(=O)O)C(=O)N[C@@H](CC(C)C)C(N)=O)[C@@H](C)CC)C(C)C)NC(=O)[C@H]([C@@H](C)CC)NC(=O)[C@H](CCC(=O)O)NC(=O)[C@H](CCCCN)NC1=O)[C@@H](C)CC)C(C)C)C(C)C`, the Activity worked out at 35% in the assay with SARS-CoV-2 [1] and 47.6% in the assay on SARS-CoV-2 [2].

As to `CC[C@H](C)[C@H](NC(=O)CNC(=O)[C@H](CO)NC(=O)[C@@H](NC(=O)[C@H](CC(=O)O)NC(C)=O)[C@@H](C)CC)C(=O)N[C@@H](CC(N)=O)C(=O)N[C@@H](C)C(=O)N[C@@H](CO)C(=O)N[C@H](C(=O)N[C@H](C(=O)N[C@@H](CC(N)=O)C(=O)N[C@H](C(=O)N[C@@H](CCC(N)=O)C(=O)N[C@@]1(C)CCC/N=C\CCC[C@@](C)(C(=O)N[C@@H](CC(C)C)C(=O)N[C@@H](CC(N)=O)C(=O)N[C@@H](CCC(=O)O)C(=O)N[C@H](C(=O)N[C@@H](C)C(=O)N[C@@H](CCCCN)C(=O)N[C@@H](CC(N)=O)C(=O)N[C@@H](CC(C)C)C(=O)N[C@@H](CC(N)=O)C(=O)N[C@@H](CCC(=O)O)C(=O)N[C@@H](CO)C(=O)N[C@@H](CC(C)C)C(=O)N[C@H](C(=O)N[C@@H](CC(=O)O)C(=O)N[C@@H](CC(C)C)C(=O)N[C@@H](CCC(N)=O)C(=O)N[C@@H](CCC(=O)O)C(=O)N[C@@H](CC(C)C)C(N)=O)[C@@H](C)CC)C(C)C)NC(=O)[C@H](CC(=O)O)NC(=O)[C@H]([C@@H](C)CC)NC(=O)[C@H](CCC(=O)O)NC1=O)[C@@H](C)CC)C(C)C)C(C)C`, the values for the Activity with SARS-CoV-2 [1] and with SARS-CoV-2 [2] were 28.5% and 16.1%, respectively.

With `CC[C@H](C)[C@H](NC(=O)CNC(=O)[C@H](CO)NC(=O)[C@@H](NC(=O)[C@H](CC(=O)O)NC(C)=O)[C@@H](C)CC)C(=O)N[C@@H](CC(N)=O)C(=O)N[C@@H](C)C(=O)N[C@@H](CO)C(=O)N[C@H](C(=O)N[C@H](C(=O)N[C@@H](CC(N)=O)C(=O)N[C@H](C(=O)N[C@@H](CCC(N)=O)C(=O)N[C@@H](CCCCN)C(=O)N[C@@H](CCC(=O)O)C(=O)N[C@H](C(=O)N[C@@H](CC(=O)O)C(=O)N[C@@]1(C)CCC/C=C\CCC[C@@](C)(C(=O)N[C@@H](C)C(=O)N[C@@H](CCCCN)C(=O)N[C@@H](CC(N)=O)C(=O)N[C@@H](CC(C)C)C(=O)N[C@@H](CC(N)=O)C(=O)N[C@@H](CCC(=O)O)C(=O)N[C@@H](CO)C(=O)N[C@@H](CC(C)C)C(=O)N[C@H](C(=O)N[C@@H](CC(=O)O)C(=O)N[C@@H](CC(C)C)C(=O)N[C@@H](CCC(N)=O)C(=O)N[C@@H](CCC(=O)O)C(=O)N[C@@H](CC(C)C)C(N)=O)[C@@H](C)CC)NC(=O)[C@H](CCC(=O)O)NC(=O)[C@H](CC(N)=O)NC(=O)[C@H](CC(C)C)NC1=O)[C@@H](C)CC)[C@@H](C)CC)C(C)C)C(C)C`, the Activity is recorded as 41% in the assay with SARS-CoV-2 [1] and 36.8% in the assay with SARS-CoV-2 [2].

In the case of `CC[C@H](C)[C@H](NC(=O)CNC(=O)[C@H](CO)NC(=O)[C@@H](NC(=O)[C@H](CC(=O)O)NC(C)=O)[C@@H](C)CC)C(=O)N[C@@H](CC(N)=O)C(=O)N[C@@H](C)C(=O)N[C@@H](CO)C(=O)N[C@H](C(=O)N[C@H](C(=O)N[C@@H](CC(N)=O)C(=O)N[C@H](C(=O)N[C@@H](CCC(N)=O)C(=O)N[C@@H](CCCCN)C(=O)N[C@@H](CCC(=O)O)C(=O)N[C@H](C(=O)N[C@@]1(C)CCC/C=C\CCC[C@@](C)(C(=O)N[C@H](C(=O)N[C@@H](C)C(=O)N[C@@H](CCCCN)C(=O)N[C@@H](CC(N)=O)C(=O)N[C@@H](CC(C)C)C(=O)N[C@@H](CC(N)=O)C(=O)N[C@@H](CCC(=O)O)C(=O)N[C@@H](CO)C(=O)N[C@@H](CC(C)C)C(=O)N[C@H](C(=O)N[C@@H](CC(=O)O)C(=O)N[C@@H](CC(C)C)C(=O)N[C@@H](CCC(N)=O)C(=O)N[C@@H](CCC(=O)O)C(=O)N[C@@H](CC(C)C)C(N)=O)[C@@H](C)CC)C(C)C)NC(=O)[C@H](CC(N)=O)NC(=O)[C@H](CC(C)C)NC(=O)[C@H](CCCNC(=N)N)NC1=O)[C@@H](C)CC)[C@@H](C)CC)C(C)C)C(C)C`, the Activity is recorded as 35% with SARS-CoV-2 [1] and 27.8% in the assay on SARS-CoV-2 [2].

`CC[C@H](C)[C@H](NC(=O)CNC(=O)[C@H](CO)NC(=O)[C@@H](NC(=O)[C@H](CC(=O)O)NC(C)=O)[C@@H](C)CC)C(=O)N[C@@H](CC(N)=O)C(=O)N[C@@H](C)C(=O)N[C@@H](CO)C(=O)N[C@H](C(=O)N[C@H](C(=O)N[C@@H](CC(N)=O)C(=O)N[C@H](C(=O)N[C@@H](CCC(N)=O)C(=O)N[C@@H](CCCCN)C(=O)N[C@@H](CCC(=O)O)C(=O)NC1(C)CCC/C=C\CCCC(C)(C(=O)NC(CCC(=O)O)C(=O)N[C@H](C(=O)N[C@@H](C)C(=O)N[C@@H](CCCCN)C(=O)N[C@@H](CC(N)=O)C(=O)N[C@@H](CC(C)C)C(=O)N[C@@H](CC(N)=O)C(=O)N[C@@H](CCC(=O)O)C(=O)N[C@@H](CO)C(=O)N[C@@H](CC(C)C)C(=O)N[C@H](C(=O)N[C@@H](CC(=O)O)C(=O)N[C@@H](CC(C)C)C(=O)N[C@@H](CCC(N)=O)C(=O)N[C@@H](CCC(=O)O)C(=O)N[C@@H](CC(C)C)C(N)=O)[C@@H](C)CC)C(C)C)NC(=O)[C@H](CC(C)C)NC(=O)[C@H](CCCNC(=N)N)NC(=O)[C@H](CC(=O)O)NC1=O)[C@@H](C)CC)C(C)C)C(C)C` (stereo not given in full) displayed an EC50 in the assay with SARS-CoV-2 [3] of 14.6 µM. Moreover, the figures for the Activity with SARS-CoV-2 [1] and in the assay with SARS-CoV-2 [2] were 25% and 50.8%, respectively.

As for `CC[C@H](C)[C@H](NC(=O)CNC(=O)[C@H](CO)NC(=O)[C@@H](NC(=O)[C@H](CC(=O)O)NC(C)=O)[C@@H](C)CC)C(=O)N[C@@H](CC(N)=O)C(=O)N[C@@H](C)C(=O)N[C@@H](CO)C(=O)N[C@H](C(=O)N[C@H](C(=O)N[C@@H](CC(N)=O)C(=O)N[C@H](C(=O)N[C@@H](CCC(N)=O)C(=O)N[C@@H](CCCCN)C(=O)N[C@@]1(C)CCC/C=C\CCC[C@@](C)(C(=O)N[C@@H](CC(N)=O)C(=O)N[C@@H](CCC(=O)O)C(=O)N[C@H](C(=O)N[C@@H](C)C(=O)N[C@@H](CCCCN)C(=O)N[C@@H](CC(N)=O)C(=O)N[C@@H](CC(C)C)C(=O)N[C@@H](CC(N)=O)C(=O)N[C@@H](CCC(=O)O)C(=O)N[C@@H](CO)C(=O)N[C@@H](CC(C)C)C(=O)N[C@H](C(=O)N[C@@H](CC(=O)O)C(=O)N[C@@H](CC(C)C)C(=O)N[C@@H](CCC(N)=O)C(=O)N[C@@H](CCC(=O)O)C(=O)N[C@@H](CC(C)C)C(N)=O)[C@@H](C)CC)C(C)C)NC(=O)[C@H](CCCNC(=N)N)NC(=O)[C@H](CC(=O)O)NC(=O)[C@H]([C@@H](C)CC)NC1=O)[C@@H](C)CC)C(C)C)C(C)C`, the Activity in the assay with SARS-CoV-2 [1] was found to be 32%; with SARS-CoV-2 [2], 39.8%.

These data come from ChEMBL document CHEMBL5030565, “Stapled Peptides Targeting SARS-CoV-2 Spike Protein HR1 Inhibit the Fusion of Virus to Its Cell Receptor” (J Med Chem, 2021).
